From patent US20240246920A1, “TRIAZOLE DERIVATIVES WITH ANTIFUNGAL ACTIVITY” (King's College London, priority 2020, published 2024)
Converted amounts (≈) assume the structure as drawn. Where two headings read alike, the source gives them in different places.

Columns and labels:
C. parapsilosis NCPF3209 = test: microbe, parasite or virus in culture; type: cell-based, Candida parapsilosis; conditions: Lodderomyces parapsilosis, NCPF3209; Table 4, common panel; 24 hours, ≥50% inhibition; read-out: MIC C. parapsilosis NCPF3209
Experimental: (§1) The minimum inhibitory concentration of test compounds were determined in a panel of Candida species (see Table 4 below), using the a serial dilution method in 96-well plates using the following protocol.
(§2) Starter cultures of fungal strains to be tested were grown in 3 mL of RPMI 2% glucose media incubated at 37° C. with shaking at 200 rpm overnight. The culture media used was 900 mL H2O; 10.4 g RPMI 1640 (with L-glutamine and a pH indicator but without bicarbonate); 34.5 g MOPS and 18 g glucose. The pH of the media was adjusted to 7.0 with 1 M sodium hydroxide.
(§3) Solutions of the compound to be tested were prepared by dissolving the compound in DMSO and subsequently into media to the desired concentrations. […] The last two rows of each plate were control rows containing the culture media alone and the media plus fungi.
(§4) The fungi starter cultures were diluted 1:10 in water in cuvettes. This was then further diluted to an optical density (OD600) of 0.01 in media. 100 μL of the fungi was added to each well giving a starting concentration of fungus of 0.5-5×10^5/mL. One species of fungus was used on each plate. The plates were then held at 37° C. for 24 hours.
(§5) A plate reader was used to measure growth in each well at OD530 nm and the MIC was determined for each test compound. The MIC is defined as the lowest concentration giving rise to inhibition of ≥50% of that of the drug-free control well containing the fungus and media.

C. glabrata NCPF8018 = test: Candida panel MIC, serial dilution in 96-well plates; type: cell-based, Candida glabrata; conditions: Nakaseomyces glabratus, NCPF8018; Table 4, common panel; 24 hours, ≥50% inhibition; read-out: MIC C. glabrata NCPF8018
Experimental: as §1, §2, §3, §4, §5

C. krusei NCPF3876 = test: microbe, parasite or virus in culture; type: cell-based, Candida krusei; conditions: Pichia kudriavzevii, NCPF3876; Table 4, common panel; 24 hours, ≥50% inhibition; read-out: MIC C. krusei NCPF3876
Experimental: as §1, §2, §3, §4, §5

C. tropicalis NCPF8760 = test: Candida panel MIC, serial dilution in 96-well plates; type: cell-based; conditions: NCPF8760, Table 4, common panel, 24 hours, ≥50% inhibition, read-out: MIC C. tropicalis NCPF8760
Experimental: as §1, §2
(§6) Solutions of the compound to be tested were prepared by dissolving the compound in DMSO and subsequently into media to the desired concentrations. 200 μL of compound solution was then added to the wells of the 96-well plate using a serial dilution method row-by row of the plate to give a compound concentration gradient across the plate of from 128 μg/mL to 0.25 μg/mL. The last two rows of each plate were control rows containing the culture media alone and the media plus fungi.
as §4, §5

C. auris TDG1912 = test: as above; type: cell-based; conditions: Candidozyma auris, TDG1912; Table 4; 24 hours, ≥50% inhibition; read-out: MIC C. auris TDG1912
Experimental: as §1, §2, §6, §4, §5

Candida auris TDG1102 = test: as above; type: cell-based; conditions: Candidozyma auris, TDG1102; Table 4, extended panel; 24 hours, ≥50% inhibition; read-out: MIC Candida auris TDG1102
Experimental: as §1, §2, §6, §4, §5

Candida auris TDG2512 = test: as above; type: cell-based; conditions: Candidozyma auris, TDG2512; Table 4, extended panel; 24 hours, ≥50% inhibition; read-out: MIC Candida auris TDG2512
Experimental: as §1, §2, §6, §4, §5

Candida auris TDG2506 = test: microbe, parasite or virus in culture; type: cell-based; conditions: Candidozyma auris
Experimental: as §1, §2, §3, §4, §5
(§7) The Candida auris strains shown in Table 7 were either taken from the National Collection of Pathogenic Fungi (NCPF) or collected as part of ongoing surveillance studies. The strains were characterised as follows.

Candida auris TDG2211 = test: microbe, parasite or virus in culture; type: cell-based; conditions: Candidozyma auris
Experimental: as §1, §2, §3, §4, §5, §7

C. albicans NCPF3281 = test: Candida panel MIC, serial dilution in 96-well plates; type: cell-based, Candida albicans; conditions: Candida albicans, NCPF3281; Table 4, common panel; 24 hours, ≥50% inhibition; read-out: MIC C. albicans NCPF3281
Experimental: as §1, §2, §6, §4, §5

C. auris 8977 = test: as above; type: cell-based, Candida auris
Experimental: as §1, §2, §3, §4, §5, §7

C. auris 8971 = test: as above; type: cell-based, Candida auris
Experimental: as §1, §2, §3, §4, §5, §7

C. auris 8984 = test: as above; type: cell-based, Candida auris
Experimental: as §1, §2, §3, §4, §5, §7

[1] = TDG2506, Table 4, extended panel, 24 hours, ≥50% inhibition, read-out: MIC Candida auris TDG2506
[2] = TDG2211, Table 4, extended panel, 24 hours, ≥50% inhibition, read-out: MIC Candida auris TDG2211
[3] = Candidozyma auris, 8977, Table 4, extended panel, 24 hours, ≥50% inhibition, read-out: MIC C. auris 8977
[4] = Candidozyma auris, 8971, Table 4, extended panel, 24 hours, ≥50% inhibition, read-out: MIC C. auris 8971
[5] = Candidozyma auris, 8984, Table 4, extended panel, 24 hours, ≥50% inhibition, read-out: MIC C. auris 8984
[6] = TDG2506, read-out: MIC C. auris 2506
[7] = TDG2211, read-out: MIC C. auris 2211
[8] = Candidozyma auris, 8977, read-out: MIC C. auris 8977
[9] = Candidozyma auris, 8971, read-out: MIC C. auris 8971
[10] = Candidozyma auris, 8984, read-out: MIC C. auris 8984

`OC(CN1CCC2(CCN(c3ccc(OCCN4CCOCC4)cc3)CC2)C1)(Cn1cncn1)c1ccc(F)cc1F` (stereo not drawn) [Example 88] was tested, and the MIC (C. parapsilosis NCPF3209) was 0.0313 µg/mL (≈ 0.0537 µM), the MIC (C. glabrata NCPF8018) was 4 µg/mL (≈ 6.86 µM) and the MIC (C. krusei NCPF3876) was 1 µg/mL (≈ 1.72 µM). For the same compound, the MIC (C. tropicalis NCPF8760) was 1 µg/mL (≈ 1.72 µM), the MIC (C. auris TDG1912) was 0.5 µg/mL (≈ 0.858 µM) and the MIC (Candida auris TDG1102) was 0.5 µg/mL (≈ 0.858 µM). For the same compound, the MIC (Candida auris TDG2512) was 0.0625 µg/mL (≈ 0.107 µM), the MIC (Candida auris TDG2506; [1]) was 0.25 µg/mL (≈ 0.429 µM) and the MIC (Candida auris TDG2211; [2]) was 0.125 µg/mL (≈ 0.215 µM). It also gave an MIC (C. albicans NCPF3281) of 0.0313 µg/mL (≈ 0.0537 µM), an MIC (C. auris 8977; [3]) of 0.125 µg/mL (≈ 0.215 µM) and an MIC (C. auris 8971; [4]) of 0.25 µg/mL (≈ 0.429 µM). It also gave an MIC (C. auris 8984; [5]) of 0.25 µg/mL (≈ 0.429 µM).
Compound `OC(CN1CCC(Nc2ccc(OCCN3CCOCC3)cc2)CC1)(Cn1cncn1)c1ccc(F)cc1F` (stereo not drawn) [Compound number 6, 2-(2,4-Difluorophenyl)-1-(4-((4-(2-morpholinoethoxy)phenyl)amino)piperidin-1-yl)-3-(1H-1,2,4-triazol-1-yl)propan-2-ol] has an MIC (Candida auris TDG2506; [6]) of 0.25 µg/mL (≈ 0.461 µM), an MIC (Candida auris TDG2211; [7]) of 0.25 µg/mL (≈ 0.461 µM) and an MIC (C. auris 8977; [8]) of 0.06 µg/mL (≈ 0.111 µM). The MIC (C. auris 8971; [9]) was 0.03 µg/mL (≈ 0.0553 µM) and the MIC (C. auris 8984; [10]) was 0.125 µg/mL (≈ 0.23 µM).
In the case of `OC(CN1CCC(N2CCC(Nc3ccccc3)CC2)CC1)(Cn1cncn1)c1ccc(F)cc1F` (stereo not drawn) [Example 14, 2-(2,4-difluorophenyl)-1-(4-(phenylamino)-[1,4′-bipiperidin]-1′-yl)-3-(1H-1,2,4-triazol-1-yl)propan-2-ol], the MIC (C. parapsilosis NCPF3209) is reported as no more than 0.125 µg/mL, the MIC (C. glabrata NCPF8018) is reported as 16 µg/mL (≈ 32.2 µM) and the MIC (C. krusei NCPF3876) is reported as 4 µg/mL (≈ 8.05 µM). The MIC (C. tropicalis NCPF8760) was 32 µg/mL (≈ 64.4 µM), the MIC (C. auris TDG1912) was 1 µg/mL (≈ 2.01 µM) and the MIC (Candida auris TDG1102) was 1 µg/mL (≈ 2.01 µM). The MIC (Candida auris TDG2512) was 0.25 µg/mL (≈ 0.503 µM), the MIC (Candida auris TDG2506; [1]) was 2 µg/mL (≈ 4.03 µM) and the MIC (Candida auris TDG2211; [2]) was no more than 0.125 µg/mL. For the same compound, the MIC (C. albicans NCPF3281) was no more than 0.125 µg/mL, the MIC (C. auris 8977; [3]) was 0.25 µg/mL (≈ 0.503 µM) and the MIC (C. auris 8971; [4]) was 0.25 µg/mL (≈ 0.503 µM). The MIC (C. auris 8984; [5]) was 1 µg/mL (≈ 2.01 µM).
Work on `OC(CN1C[C@H]2CC(Nc3ccc(N4CCCCC4)cc3)C[C@H]2C1)(Cn1cncn1)c1ccc(F)cc1F` (stereo partly drawn) [Example 100] yielded an MIC (C. parapsilosis NCPF3209) of no more than 0.03 µg/mL, an MIC (C. glabrata NCPF8018) of 2 µg/mL (≈ 3.83 µM) and an MIC (C. krusei NCPF3876) of 2 µg/mL (≈ 3.83 µM). The MIC (C. tropicalis NCPF8760) was 8 µg/mL (≈ 15.3 µM), the MIC (C. auris TDG1912) was 8 µg/mL (≈ 15.3 µM) and the MIC (Candida auris TDG1102) was 16 µg/mL (≈ 30.6 µM). It also gave an MIC (Candida auris TDG2512) of 0.25 µg/mL (≈ 0.478 µM), an MIC (Candida auris TDG2506; [1]) of 4 µg/mL (≈ 7.65 µM) and an MIC (Candida auris TDG2211; [2]) of 2 µg/mL (≈ 3.83 µM). The MIC (C. albicans NCPF3281) was no more than 0.03 µg/mL, the MIC (C. auris 8977; [3]) was 2 µg/mL (≈ 3.83 µM) and the MIC (C. auris 8971; [4]) was 1 µg/mL (≈ 1.91 µM). It also gave an MIC (C. auris 8984; [5]) of 4 µg/mL (≈ 7.65 µM).
`OC(CN1CCC(Nc2ccc(Cc3ccccc3)cc2)CC1)(Cn1cncn1)c1ccc(F)cc1F` (stereo not drawn) [Compound number 11, 1-(4-((4-benzylphenyl)amino)piperidin-1-yl)-2-(2,4-difluorophenyl)-3-(1H-1,2,4-triazol-1-yl)propan-2-ol] gave an MIC (Candida auris TDG2506; [6]) of 0.125 µg/mL (≈ 0.248 µM), an MIC (Candida auris TDG2211; [7]) of no more than 0.125 µg/mL and an MIC (C. auris 8977; [8]) of no more than 0.125 µg/mL. For the same compound, the MIC (C. auris 8971; [9]) was no more than 0.125 µg/mL and the MIC (C. auris 8984; [10]) was 0.125 µg/mL (≈ 0.248 µM).
In the case of `OC(CN1CCC2(CCC(Nc3ccc(OCCN4CCOCC4)cc3)CC2)C1)(Cn1cncn1)c1ccc(F)cc1F` (stereo not drawn) [Compound number 87, 2-(2,4-difluorophenyl)-1-(8-((4-(2-morpholinoethoxy)phenyl)amino)-2-azaspiro[4.5]decan-2-yl)-3-(1H-1,2,4-triazol-1-yl)propan-2-ol], the MIC (Candida auris TDG2506; [6]) is reported as 0.125 µg/mL (≈ 0.209 µM), the MIC (Candida auris TDG2211; [7]) is reported as 0.125 µg/mL (≈ 0.209 µM) and the MIC (C. auris 8977; [8]) is reported as 0.25 µg/mL (≈ 0.419 µM). It also gave an MIC (C. auris 8971; [9]) of 0.25 µg/mL (≈ 0.419 µM) and an MIC (C. auris 8984; [10]) of 0.25 µg/mL (≈ 0.419 µM).
